In paper PMC6742494 (ACS infectious diseases, 2016):
Converted amounts (≈) assume the structure as drawn. “And” between values parts separate entries of the source, which are not always exact repeats. Identical values can stand only once.

Experiments:
Mtb T 27 (INH-resistant) = experiment: microbe, parasite or virus in culture; format: cell-based; details: Mycobacterium tuberculosis
[1] = system: Mtb Beijing 22 (RIF-resistant); experiment: microbe, parasite or virus in culture; format: cell-based; details: Mycobacterium tuberculosis
[2] = system: Mtb Haarlem 9 (RIF-resistant); experiment: microbe, parasite or virus in culture; format: cell-based; details: Mycobacterium tuberculosis
[3] = system: Mtb H37Rv resistant isolates with mmpL3 mutations; format: cell-based, Mycobacterium tuberculosis

`NNC(=O)c1ccncc1` [INH, isoniazid] showed an MIC (Mtb T 27 (INH-resistant)) of over 0.8 µg/mL, an MIC [1] of 0.025 µg/mL (≈ 0.182 µM) and an MIC [2] of 0.025 µg/mL (≈ 0.182 µM). The “susceptibility of DA5^R and TBL-140^R strains” value (“susceptibility” for short) [3] was “identical susceptibility as wild-type H37Rv”.

`CC(C)=CCC/C(C)=C/CNCCNC1C2CC3CC(C2)CC1C3` (centres unmarked) [SQ109] was tested, and the MIC [3] was 6.25 µg/mL and 12.5 µg/mL.

For `CO[C@H]1/C=C/O[C@@]2(C)Oc3c(C)c(O)c4c(O)c(c(/C=N/N5CCN(C)CC5)c(O)c4c3C2=O)NC(=O)/C(C)=C\C=C\[C@H](C)[C@H](O)[C@@H](C)[C@@H](O)[C@@H](C)[C@H](OC(C)=O)[C@@H]1C` [RIF, rifampicin], the MIC (Mtb T 27 (INH-resistant)) was 0.0125 µg/mL (≈ 0.0152 µM) and the “susceptibility” value [3] was “identical susceptibility as wild-type H37Rv”.

In the case of `FC(F)(F)Oc1ccc(Oc2ccc(CNCCNC3C4CC5CC(C4)CC3C5)cc2)cc1` (centres unmarked) [Compound 8, N^1-adamantan-2-yl-N^2-(4-(4-(trifluoro-methoxy)phenoxy)benzyl)ethane-1,2-diamine], the MIC (Mtb T 27 (INH-resistant)) is reported as 0.58 µg/mL (≈ 1.26 µM), the MIC [1] is reported as 1.2 µg/mL (≈ 2.61 µM) and the MIC [2] is reported as 1.2 µg/mL (≈ 2.61 µM).

For `CC[C@@H](CO)NCCN[C@@H](CC)CO` [EMB, ethambutol], the MIC (Mtb T 27 (INH-resistant)) was 1 µg/mL (≈ 4.89 µM), the MIC [1] was 1 µg/mL (≈ 4.89 µM) and the MIC [2] was 1 µg/mL (≈ 4.89 µM). For the same compound, the “susceptibility” value [3] was “identical susceptibility as wild-type H37Rv”.
